Data: patent publication US10023551B2, “Glutathione-cleavable prodrug and methods of use thereof” (GEORGETOWN UNIVERSITY, priority 2015, dated 2018)
Like-named read-outs stand apart in the source and are kept apart here.

Legend:
[1] = system: MCF10A; experiment: Inhibition of cell proliferation in normal cells (MCF10A); format: cell-based
Experimental: (§1) To evaluate the toxicity of YK-5-252 in cells, the inhibition of cell proliferation was measured in normal cells (MCF10A) and TNBC cells (MDA-MB-231). […] This lack of selectivity can be attributed to the toxicity of YK-5-252.

[2] = system: MDA-MB-231; experiment: Inhibition of cell proliferation in TNBC cells (MDA-MB-231); format: cell-based
Experimental: as §1

[3] = system: tubulin polymerization; experiment: Immunofluorescence staining of tubulin in TNBC cells; format: cell-based; conditions: 50 nM, MDA-MB-231
Experimental: To determine the biological effect of YK-5-252, its mechanism of action was determined through immunofluorescence staining.

[4] = Fluorescence properties and activation via GSH cleavage; format: physicochemical; conditions: for NIR fluorescence emission: without GSH, excitation of 492 nm
Experimental: FIG. 11 contains emission spectra of compounds described herein.
The fluorescence properties and ability to be activated via GSH cleavage of YK-5-252 were evaluated. DCM-NH2 has a NIR fluorescence emission at 650 nm with an excitation of 492 nm (FIG. 11, panel a). […] This can be due to the loss of electron donating ability of the amine group when attached to the linker. To ascertain the stability of YK-5-252 toward GSH, fluorescence was monitored in the presence of GSH.

[5] = system: MDA-MB-231; experiment: FACS analysis of cell population containing released DCM-NH2, TNBC cells; format: cell-based; conditions: treated 48 hours
Experimental: (§2) To further investigate the in vivo activation of YK-5-252, fluorescence-activated cell sorting (FACS) was used. Cells were treated with YK-5-252 for 48 hours. After treatment, FACS analysis was conducted to determine how much of the cell population has DCM-NH2 present. […] HPLC analysis confirmed that CA-4 release is concurrent with the release of DCM-NH2 in a traceless manner (FIG. 14, panels (a-d)). The difference in prodrug cleavage in cancer cells versus normal cells is due to the higher levels of GSH produced in cancer cells.

[6] = system: MCF10A; experiment: FACS analysis of cell population containing released DCM-NH2, normal cells; format: cell-based; conditions: treated 48 hours
Experimental: as §2

[7] = HPLC analysis of cleavage by glutathione; format: physicochemical; conditions: YK-5-252 200 μM; GSH 50 mM
Experimental: FIG. 14 contains HPLC traces. Panel (a) is a trace of YK-5-252 (200 μM). Panel (b) is a trace of YK-5-252 (200 μM) and glutathione (GSH; 50 mM). Panel (c) is a trace of CA-4 (200 μM). Panel (d) is a trace of DCM (200 μM). […] After treatment with GSH (Panel (b)), the YK-5-252 peak at 10.5 minutes disappeared while two new peaks at 6.8 and 8.6 minutes appears which corresponds to the release of CA-4 and DCM-NH2, respectively (Panels (c) and (d)).
as §2

[8] = system: MDA-MB-231 versus MCF10A; experiment: Live cell imaging by confocal microscopy; format: cell-based; conditions: 1 micromolar, 1 hour
Experimental: FIG. 12, panel (a) contains a confocal microscopy image of MDA-MB-231 cells (triple negative breast cancer cells) treated with YK-5-252 (1 micromolar) for 1 hour. Panel (b) contains a nuclear staining image of the cells with Hoesht dye. Panel (c) contains a merged image of panels (a) and (b). Panel (d) contains a confocal microscopy image of MCF10A (normal breast cells) treated with YK-5-252 (1 micromolar) for 1 hour. Panel (e) contains a nuclear stained image of the cells with Hoescht dye. Panel (f) contains a merged image of panels (d) and (e).
To test the ability of YK-5-252 to selectively release CA-4 in cancer cells, the presence of DCM was monitored through confocal microscopy. […] Also this experiment confirms the utility of YK-5-252 to monitor drug delivery and release in vivo.

[9] = system: MCF-7 and MCF-10A cell lines; experiment: In vitro cytotoxicity assay; format: cell-based; conditions: FIGS. 7 and 8
Description: FIG. 7 contains plots for use in calculating the IC50 values for YK-5-252 and CA-4 in a MCF-7 cell line.
FIG. 8 contains plots for use in calculating the IC50 values for YK-5-252 and CA-4 in a MCF-10A cell line.
YK-5-252, the designed drug with linked disulfide bond described above, can be cleaved by intracellular glutathione (GSH). Cancer cells have a much higher GSH concentration than normal cells; therefore, this GSH-cleavable prodrug holds promising therapeutic efficacy. Near-infrared photons can deeply penetrate the skin and tissue with minimal damage. […] Due to its NIR fluorescent property, the compound also offers an excellent ability for tracking drug release in vivo.

SMILES	GI50 ([1]; MCF10A normal breast cells, read-out: GI50 (Table 1))	GI50 ([1]; normal cells (MCF10A), read-out: GI50)	GI50 ([2]; MDA-MB-231 TNBC cells, after 72 hours of treatment, read-out: GI50 (Table 1))	GI50 ([2]; TNBC cells (MDA-MB-231), read-out: GI50)	disruption of tubulin polymerization ([3]; 1 hour)	NIR fluorescence emission [4]	GI50 ([1]; Homo sapiens, MCF-10A, MCF10A normal breast cells, read-out: GI50 (Table 1))	GI50 ([1]; Homo sapiens, MCF-10A, normal cells (MCF10A), read-out: GI50)	GI50 ([2]; Homo sapiens, MDA-MB-231 TNBC cells, after 72 hours of treatment, read-out: GI50 (Table 1))	GI50 ([2]; Homo sapiens, TNBC cells (MDA-MB-231), read-out: GI50)	cells containing DCM-NH2 [5]	cells containing DCM-NH2 (the fluorophore) [6]	disruption of tubulin polymerization ([3]; 6 hours)	fluorescence emission in the presence of GSH ([4]; GSH 250 mM, pH 8, DMSO/PBS 50/50)	prodrug HPLC peak after treatment with GSH [7]	fluorescence in TNBC cells versus normal breast cells [8]	toxicity compared with parent drug [9]
COc1ccc(/C=C\c2cc(OC)c(OC)c(OC)c2)cc1O [CA-4, combretastatin A-4, reference compound]	< 0.001 nM	< 0.001 nM	2.81 nM	28.1 nM	completely inhibited tubulin polymerization												
N#CC(C#N)=C1C=C(/C=C/c2ccc(N)cc2)Oc2ccccc21 [DCM-NH2, (E)-2-(2-(4-aminostyryl)-4H-chromen-4-ylidene)malononitrile]						650 nm											
COc1ccc(/C=C\c2cc(OC)c(OC)c(OC)c2)cc1OC(=O)OCCSSCCOC(=O)Nc1ccc(/C=C/C2=CC(=C(C#N)C#N)c3ccccc3O2)cc1 [YK-5-252]					did not cause disruption of tubulin polymerization	no NIR emission	19.2 nM	~19.2 nM	40.3 nM	40.3 nM	72%	about 5%	began to disrupt tubulin polymerization	650 nm	disappeared	higher quantities	much less toxic than its linked parent drug
